ChEMBL document CHEMBL6153174, “Design and Synthesis of Novel Deazapurine DNMT 1 Inhibitors with In Vivo Efficacy in DLBCL” (J Med Chem, 2025)
Calls of active or inactive are those of the source. The rule behind the calls is not given here.

Tests used:
TMD8 [1] = assay: Induction of apoptosis in human TMD8 cells assessed as early apoptotic cells at 10 uM measured after 48 hrs by annexin-V/FITC and PI staining based flow cytometry analysis (reference value: 9.15%); type: functional
DOHH-2 [2] = assay: Induction of apoptosis in human DOHH-2 cells assessed as early apoptotic cells at 0.25 uM measured after 48 hrs by annexin-V/FITC and PI staining based flow cytometry analysis (reference value: 5.69%); type: functional
TMD8 [3] = assay: Induction of apoptosis in human TMD8 cells assessed as late apoptotic cells measured after 48 hrs by annexin-V/FITC and PI staining based flow cytometry analysis; type: functional, cell-based; details: dose 1-10 µM
[4] = Volume of distribution at steady state in Sprague-Dawley rat at 10 mg/kg, po measured upto 24 hrs by LC/MS/MS analysis; type: ADME, organism-based; details: in vivo
MOLM-13 = assay: Antiproliferative activity against human MOLM-13 cells assessed as inhibition of cell viability measured after 72 hrs by MTT assay; type: functional, cell-based; details: MOLM-13, 72 h
DOHH-2 [5] = assay: Induction of apoptosis in human DOHH-2 cells assessed as early apoptotic cells at 1 uM measured after 48 hrs by annexin-V/FITC and PI staining based flow cytometry analysis (reference value: 5.69%); type: functional
U2932 = assay: Antiproliferative activity against human U2932 cells assessed as inhibition of cell viability measured after 72 hrs by MTT assay; type: functional, cell-based; details: U2932, 72 h
TMD8 [6] = assay: Antitumor activity against human TMD8 cells xenografted in mouse model assessed as tumor inhibition rate at 10 mg/kg, iv administered three times a week relative to control; type: functional; parameters: scale not given: the % may be the effect or the level left
[7] = Antitumor activity against human TMD8 cells harbouring […] xenografted in mouse model assessed as tumor inhibition rate at 10 mg/kg, iv administered three times a week in presence of chidamide relative to control; type: functional; parameters: scale not given: the % may be the effect or the level left
[8] = Antitumor activity against human TMD8 cells harbouring TP53 mutant xenografted in mouse model assessed as tumor inhibition rate at 10 mg/kg, iv administered three times a week relative to control; type: functional; parameters: scale not given: the % may be the effect or the level left
HCT-116 = assay: Antiproliferative activity against human HCT-116 cells assessed as inhibition of cell viability measured after 72 hrs by MTT assay; type: functional, cell-based; details: HCT-116, 72 h
[9] = biological target: DNA (cytosine-5)-methyltransferase 1 (Homo sapiens, UniProt P26358); assay: Inhibition of DNMT1 in human DOHH-2 cells assessed as inhibition of DNA methylation incubated for 48 hrs by Western blot analysis; type: cell-based; details: dose 10-1000 nM
DNA (cytosine-5)-methyltransferase 1, sequence (P26358 whole entry): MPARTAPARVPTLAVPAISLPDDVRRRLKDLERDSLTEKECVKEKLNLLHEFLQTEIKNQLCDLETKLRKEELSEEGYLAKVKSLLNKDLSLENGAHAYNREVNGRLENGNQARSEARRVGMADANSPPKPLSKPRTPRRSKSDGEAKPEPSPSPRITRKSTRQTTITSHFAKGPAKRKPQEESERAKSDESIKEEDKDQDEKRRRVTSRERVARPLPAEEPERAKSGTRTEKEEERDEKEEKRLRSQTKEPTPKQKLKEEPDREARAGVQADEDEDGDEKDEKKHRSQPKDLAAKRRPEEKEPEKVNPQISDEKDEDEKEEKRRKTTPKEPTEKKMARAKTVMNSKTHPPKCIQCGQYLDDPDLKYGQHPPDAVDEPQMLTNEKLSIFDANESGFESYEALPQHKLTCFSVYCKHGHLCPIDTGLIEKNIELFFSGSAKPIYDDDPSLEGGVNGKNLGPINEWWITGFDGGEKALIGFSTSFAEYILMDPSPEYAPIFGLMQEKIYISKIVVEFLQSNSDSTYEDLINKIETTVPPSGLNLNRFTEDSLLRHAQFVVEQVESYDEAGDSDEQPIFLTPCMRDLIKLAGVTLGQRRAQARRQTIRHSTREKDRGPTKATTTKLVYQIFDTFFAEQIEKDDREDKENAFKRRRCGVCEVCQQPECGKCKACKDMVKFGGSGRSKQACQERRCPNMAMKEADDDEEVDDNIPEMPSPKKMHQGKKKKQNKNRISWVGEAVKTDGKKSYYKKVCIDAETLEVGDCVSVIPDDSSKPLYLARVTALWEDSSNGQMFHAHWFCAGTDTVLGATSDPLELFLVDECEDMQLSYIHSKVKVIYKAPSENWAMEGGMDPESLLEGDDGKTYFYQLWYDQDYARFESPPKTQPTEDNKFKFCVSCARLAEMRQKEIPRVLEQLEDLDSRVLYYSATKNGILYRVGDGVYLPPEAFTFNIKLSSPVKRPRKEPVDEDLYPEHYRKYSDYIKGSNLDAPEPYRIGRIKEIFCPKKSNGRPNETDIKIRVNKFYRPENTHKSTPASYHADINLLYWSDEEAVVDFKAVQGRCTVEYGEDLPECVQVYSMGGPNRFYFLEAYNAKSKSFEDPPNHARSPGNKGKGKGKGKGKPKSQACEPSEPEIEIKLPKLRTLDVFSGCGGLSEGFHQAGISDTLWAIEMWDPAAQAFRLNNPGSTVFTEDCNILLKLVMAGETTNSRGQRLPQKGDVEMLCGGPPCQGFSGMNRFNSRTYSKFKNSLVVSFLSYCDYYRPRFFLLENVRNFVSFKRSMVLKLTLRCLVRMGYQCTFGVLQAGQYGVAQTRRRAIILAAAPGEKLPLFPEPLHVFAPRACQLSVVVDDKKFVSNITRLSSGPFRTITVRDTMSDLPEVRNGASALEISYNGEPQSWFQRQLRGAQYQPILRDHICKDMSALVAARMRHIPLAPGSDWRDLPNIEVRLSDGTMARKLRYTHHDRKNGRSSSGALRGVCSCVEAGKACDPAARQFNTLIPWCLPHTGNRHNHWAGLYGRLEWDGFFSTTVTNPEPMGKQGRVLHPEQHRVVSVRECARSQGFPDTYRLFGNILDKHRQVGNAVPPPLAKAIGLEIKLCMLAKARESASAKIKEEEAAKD

[10] = Cmax in Sprague-Dawley rat at 10 mg/kg, iv measured upto 24 hrs by LC/MS/MS analysis; type: ADME, organism-based; details: in vivo
[11] = Antitumor activity against human TMD8 cells harbouring […] xenografted in mouse model assessed as body weight change at 10 mg/kg, iv administered three times a week in presence of chidamide relative to control; type: functional
[12] = biological target: DNA (cytosine-5)-methyltransferase 3A (Homo sapiens, UniProt Q9Y6K1); assay: Inhibition of DNMT3A (unknown origin) at 5 uM preincubated for 15 mins followed by substrate and [3H-SAM] addition and measured after 60 mins by microbeta analysis relative to control; details: time 75.0 min
DNA (cytosine-5)-methyltransferase 3A, sequence (Q9Y6K1 whole entry, looked up): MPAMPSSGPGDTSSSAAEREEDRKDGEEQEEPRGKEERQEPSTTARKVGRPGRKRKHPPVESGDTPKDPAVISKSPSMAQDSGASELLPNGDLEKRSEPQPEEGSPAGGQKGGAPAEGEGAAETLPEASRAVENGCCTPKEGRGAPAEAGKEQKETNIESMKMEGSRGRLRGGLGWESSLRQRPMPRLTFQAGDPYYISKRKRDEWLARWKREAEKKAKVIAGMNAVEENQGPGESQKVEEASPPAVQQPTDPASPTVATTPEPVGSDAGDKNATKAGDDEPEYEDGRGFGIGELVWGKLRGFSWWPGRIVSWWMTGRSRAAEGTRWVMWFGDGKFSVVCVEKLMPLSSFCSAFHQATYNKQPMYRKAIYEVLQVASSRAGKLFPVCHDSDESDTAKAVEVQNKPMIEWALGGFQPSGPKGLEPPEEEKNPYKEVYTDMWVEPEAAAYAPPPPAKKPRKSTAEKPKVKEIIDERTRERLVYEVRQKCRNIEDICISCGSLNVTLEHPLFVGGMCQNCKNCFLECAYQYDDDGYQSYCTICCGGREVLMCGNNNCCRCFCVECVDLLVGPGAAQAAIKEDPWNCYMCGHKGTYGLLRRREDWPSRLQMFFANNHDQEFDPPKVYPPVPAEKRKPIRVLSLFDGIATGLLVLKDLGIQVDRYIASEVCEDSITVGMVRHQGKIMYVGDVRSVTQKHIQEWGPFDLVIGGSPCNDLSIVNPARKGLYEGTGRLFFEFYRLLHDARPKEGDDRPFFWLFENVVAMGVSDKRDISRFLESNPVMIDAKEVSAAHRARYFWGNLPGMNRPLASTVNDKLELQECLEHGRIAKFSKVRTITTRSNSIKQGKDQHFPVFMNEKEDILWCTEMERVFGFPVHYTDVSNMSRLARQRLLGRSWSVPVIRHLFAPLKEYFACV

[13] = Downregulation of FAS methylation level in human DOHH-2 cells at 100 nM measured after 6 days by PCR analysis relative to control; type: functional; details: time 6 day
THP-1 = assay: Antiproliferative activity against human THP-1 cells assessed as inhibition of cell viability measured after 72 hrs by MTT assay; type: functional, cell-based; details: THP-1, 72 h
TMD8 [14] = assay: Induction of cell cycle arrest in human TMD8 cells assessed as accumulation of cells at G2/M phase incubated for 24 hrs by PI staining based flow cytometry analysis; type: functional; details: dose 0.25-1 µM
TMD8 [15] = assay: Induction of cell cycle arrest in human TMD8 cells assessed as accumulation of cells at S phase at 0.5 uM incubated for 24 hrs by PI staining based flow cytometry analysis (reference value: 39.0%); type: functional
DOHH-2 [16] = assay: Induction of apoptosis in human DOHH-2 cells assessed as early apoptotic cells at 2.5 uM measured after 48 hrs by annexin-V/FITC and PI staining based flow cytometry analysis (reference value: 5.69%); type: functional
DOHH-2 [17] = assay: Induction of cell cycle arrest in human DOHH-2 cells assessed as accumulation of cells at G2-M phase at 0.25 uM incubated for 24 hrs by PI staining based flow cytometry analysis (reference value: 27.8%); type: functional
TMD8 [18] = assay: Induction of apoptosis in human TMD8 cells assessed as late apoptotic cells at 2.51 uM measured after 48 hrs by annexin-V/FITC and PI staining based flow cytometry analysis (reference value: 5.13%); type: functional
[19] = Cmax in Sprague-Dawley rat at 10 mg/kg, po measured upto 24 hrs by LC/MS/MS analysis; type: ADME, organism-based; details: in vivo
[20] = Clearance in Sprague-Dawley rat at 10 mg/kg, iv measured upto 24 hrs by LC/MS/MS analysis; type: ADME, organism-based; details: in vivo
DOHH-2 [21] = assay: Induction of cell cycle arrest in human DOHH-2 cells assessed as accumulation of cells at G0-G1 phase at 1 uM incubated for 24 hrs by PI staining based flow cytometry analysis (reference value: 27.1%); type: functional
DOHH-2 [22] = assay: Induction of apoptosis in human DOHH-2 cells assessed as late apoptotic cells at 0.25 uM measured after 48 hrs by annexin-V/FITC and PI staining based flow cytometry analysis (reference value: 3.66%); type: functional
U-937 = assay: Antiproliferative activity against human U-937 cells assessed as inhibition of cell viability measured after 72 hrs by MTT assay; type: functional, cell-based; details: U-937, 72 h

Vdss [4]: 574.7 L/kg
IC50 (MOLM-13): 1060 nM
IC50 (HCT-116): 720 nM
inhibition [9]: Active
Cmax [10]: 419 ng/mL
inhibition [12]: 11%
IC50 (THP-1): 2370 nM
Cmax [19]: 16.7 ng/mL
clearance [20]: 123 mL/min/kg
IC50 (U-937): 2210 nM
Compound: CN1CCC(Nc2nc(-c3ccnc(F)c3)nc3c2ccn3CCCN2CCCC2)CC1
Activity (TMD8 [1]): 47.5%
Activity (DOHH-2 [2]): 10.5%
Activity (TMD8 [3]): Dose-dependent-effect
Activity (DOHH-2 [5]): 24%
IC50 (U2932): 540 nM
Activity (TMD8 [6]): 54.61%
Activity [7]: 78.1%
Activity [8]: 58%
Activity [11]: 1.1%
Activity [13]: 54.2%
Activity (TMD8 [14]): Dose-dependent-effect
Activity (TMD8 [15]): 32.3%
Activity (DOHH-2 [16]): 33.7%
Activity (DOHH-2 [17]): 29.9%
Activity (TMD8 [18]): 10.5%
Activity (DOHH-2 [21]): 42.2%
Activity (DOHH-2 [22]): 7.58%
